The text below walks through data of patent US10053462B2, “P2X7 modulators” (Jansssen Pharmaceutica NV, priority 2013, dated 2018).

Where two headings read alike, the source gives them in different places.

The target in the experiment is P2X7 (Homo sapiens (Human), UniProt Q99572). Kind of experiment: P2X7 antagonism in human peripheral blood mononuclear cells (PBMCs), IL-1β release. It counts as cell-based. The following applies: LPS 30 ng/ml + Bz-ATP 0.5 mM; for remaining activity at 10 µM: read-out: PBMC 10 μM (% control); for PBMC 10 μM (% control): Table 1, 10 μM compound. How it is done:
P2X7 Antagonism in Human Peripheral Blood Mononuclear Cells (PBMCs) and Human Whole Blood.
Human blood was collected using a blood donor program. PBMCs were isolated from blood using a Ficoll density gradient technique. Briefly, blood was laid on Ficoll solution and centrifuged at RT for 20 minutes at 2000 rpm. The buffy layer (between red blood cells and plasma) was carefully collected by aspiration, washed with PBS and centrifuged again at 1500 rpm for 15 minutes. The resulting cell pellet was washed and plated on 96 well-plates for experiments. For the Human Whole Blood experiments, 150 μl of human blood was platted on 96 well-plates. Lipopolysaccharide (LPS) (30 ng/ml) was added to each well and incubated for 1 hour. Test compounds were then added and incubated for 30 minutes. The P2X7 agonist, 2′(3′)-O-(4-benzoylbenzoyl) adenosine 5′-triphosphate (Bz-ATP) was then added at a final concentration of 0.5 mM (PBMC) or 1 mM (blood). Cells were incubated for an additional 1.5 hours. At that point, supernatant was collected and stored for IL-1β assay using manufacturer's protocol for enzyme-linked immunosorbent assay (ELISA). Data was expressed as percent control, where control is defined as the difference in IL-1β release in LPS+Bz-ATP samples and LPS only samples. Data was plotted as response (% control) versus concentration to generate IC50 values. […] Data are analyzed and graphed on Graphpad Prism 5. For analysis, each concentration point is averaged from triplicate values and the averaged values are plotted on Graphpad Prism.

Setting [1] is: P2X7, Table 2 (additional runs), 10 μM compound.

Sequence of P2X7 (Q99572 whole entry): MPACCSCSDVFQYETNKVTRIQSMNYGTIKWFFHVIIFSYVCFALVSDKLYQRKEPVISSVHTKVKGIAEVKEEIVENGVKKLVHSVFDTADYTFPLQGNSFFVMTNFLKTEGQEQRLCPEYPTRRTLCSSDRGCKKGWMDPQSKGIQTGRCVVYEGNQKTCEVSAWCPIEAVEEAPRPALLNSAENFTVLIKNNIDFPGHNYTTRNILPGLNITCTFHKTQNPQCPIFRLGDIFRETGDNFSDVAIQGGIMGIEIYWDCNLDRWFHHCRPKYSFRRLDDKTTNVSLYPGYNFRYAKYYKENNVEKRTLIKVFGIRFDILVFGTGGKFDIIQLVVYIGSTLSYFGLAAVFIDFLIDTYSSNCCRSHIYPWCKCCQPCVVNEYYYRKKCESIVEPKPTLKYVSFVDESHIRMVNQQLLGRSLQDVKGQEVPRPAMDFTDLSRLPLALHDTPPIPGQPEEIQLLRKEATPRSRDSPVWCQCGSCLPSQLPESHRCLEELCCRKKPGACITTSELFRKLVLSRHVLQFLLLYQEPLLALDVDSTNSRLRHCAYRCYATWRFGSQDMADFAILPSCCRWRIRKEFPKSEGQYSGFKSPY

On to `O=C(c1cccc(C(F)(F)F)c1Cl)N1[C@H]2CCC[C@@H]1c1nnc(-c3ncccn3)n1C2` (stereo in doubt) [Example 2, (6S*,10R*)-11-{[2-Chloro-3-(trifluoromethyl)phenyl]carbonyl}-3-pyrimidin-2-yl-5,6,7,8,9,10-hexahydro-6,10-epimino[1,2,4]triazolo[4,3-a]azocine], for which the remaining activity at 10 µM (P2X7, Table 1, 10 μM compound) is 45.7% and the remaining activity at 10 µM under setting [1] was 45.7%.
Regarding `O=C(c1ccnc(C(F)(F)F)c1F)N1[C@@H]2CCC[C@H]1c1nnc(-c3ccccn3)n1C2` (stereo in doubt) [Example 198, (6R,10S)-11-{[3-Fluoro-2-(trifluoromethyl)pyridin-4-yl]carbonyl}-3-pyridin-2-yl-5,6,7,8,9,10-hexahydro-6,10-epimino[1,2,4]triazolo[4,3-a]azocine], the remaining activity at 10 µM under setting [1] was found to be 4.1%.
Turning to `O=C(c1cccc(C(F)(F)F)c1Cl)N1[C@H]2CCC[C@@H]1c1nnc(-c3ccc(F)cc3)n1C2` (stereo in doubt) [Example 5, (6S*,10R*)-11-{[2-Chloro-3-(trifluoromethyl)phenyl]carbonyl}-3-(4-fluorophenyl)-5,6,7,8,9,10-hexahydro-6,10-epimino[1,2,4]triazolo[4,3-a]azocine], the remaining activity at 10 µM (P2X7, Table 1, 10 μM compound) was -4.4% and the remaining activity at 10 µM under setting [1] is -4.4%.
Take `Cc1ccc(-c2nnc3n2C[C@H]2CCC[C@@H]3N2C(=O)c2ccnc(C(F)(F)F)c2Cl)s1` (stereo in doubt) [Example 39, (6R*,10S*)-11-{[3-Chloro-2-(trifluoromethyl)pyridin-4-yl]carbonyl}-3-(5-methylthiophen-2-yl)-5,6,7,8,9,10-hexahydro-6,10-epimino[1,2,4]triazolo[4,3-a]azocine]: the remaining activity at 10 µM was 5.8% (P2X7, Table 1, 10 μM compound) and 5.8% under setting [1].
As for `Cc1nc(-c2nnc3n2C[C@H]2CCC[C@@H]3N2C(=O)c2cccc(C(F)(F)F)c2Cl)ccc1F` (stereo in doubt) [Example 193, (6R,10S)-11-{[2-Chloro-3-(trifluoromethyl)phenyl]carbonyl}-3-(5-fluoro-6-methylpyridin-2-yl)-5,6,7,8,9,10-hexahydro-6,10-epimino[1,2,4]triazolo[4,3-a]azocine], the remaining activity at 10 µM under setting [1] is -13.8%.
As to `Cc1ncsc1-c1nnc2n1C[C@@H]1CC[C@H]2N1C(=O)c1cccc(C(F)(F)F)c1Cl` [Example 59, (6S,9R)-10-{[2-Chloro-3-(trifluoromethyl)phenyl]carbonyl}-3-(4-methyl-1,3-thiazol-5-yl)-6,7,8,9-tetrahydro-5H-6,9-epimino[1,2,4]triazolo[4,3-a]azepine], the “PBMC 10 μM (% control)” value was 0.6 % control. For the same compound, the remaining activity at 10 µM under setting [1] is 0.6%.
Turning to `O=C(c1cccc(C(F)(F)F)c1Cl)N1[C@@H]2CCC[C@H]1c1nnc(-c3ncccn3)n1C2` (stereo in doubt) [Example 3, (6R*,10S*)-11-{[2-Chloro-3-(trifluoromethyl)phenyl]carbonyl}-3-pyrimidin-2-yl-5,6,7,8,9,10-hexahydro-6,10-epimino[1,2,4]triazolo[4,3-a]azocine], the remaining activity at 10 µM (P2X7, Table 1, 10 μM compound) was found to be 8.9% and the remaining activity at 10 µM under setting [1] stood at 8.9%.
`O=C(c1cccc(C(F)(F)F)c1Cl)N1[C@@H]2CCC[C@H]1c1nnc(-c3ccc(F)cn3)n1C2` (stereo in doubt) [Example 12, (6R*,10S*)-11-{[2-Chloro-3-(trifluoromethyl)phenyl]carbonyl}-3-(5-fluoropyridin-2-yl)-5,6,7,8,9,10-hexahydro-6,10-epimino[1,2,4]triazolo[4,3-a]azocine]: the remaining activity at 10 µM reads like this: (P2X7, Table 1, 10 μM compound) -0.8%; under setting [1], 3.6%.
In the case of `Cc1c(C(=O)N2[C@@H]3CCC[C@H]2c2nnc(-c4ccccn4)n2C3)cccc1C(F)(F)F` (stereo in doubt) [Example 201, (6R,10S)-11-{[2-Methyl-3-(trifluoromethyl)phenyl]carbonyl}-3-pyridin-2-yl-5,6,7,8,9,10-hexahydro-6,10-epimino[1,2,4]triazolo[4,3-a]azocine], under setting [1], the remaining activity at 10 µM was -4%.
For `O=C(c1ccnc(C(F)(F)F)c1Cl)N1[C@@H]2CCC[C@H]1c1nnc(-c3cccs3)n1C2` (stereo in doubt) [Example 36, (6R*,10S*)-11-{[3-Chloro-2-(trifluoromethyl)pyridin-4-yl]carbonyl}-3-thiophen-2-yl-5,6,7,8,9,10-hexahydro-6,10-epimino[1,2,4]triazolo[4,3-a]azocine], the remaining activity at 10 µM was -1.2% (P2X7, Table 1, 10 μM compound) and -1.2% under setting [1].
For the compound `O=C(c1ccc(Cl)c(F)c1Cl)N1[C@@H]2CCC[C@H]1c1nnc(-c3ccccn3)n1C2` (stereo in doubt) [Example 202, (6R,10S)-11-[(2,4-Dichloro-3-fluorophenyl)carbonyl]-3-pyridin-2-yl-5,6,7,8,9,10-hexahydro-6,10-epimino[1,2,4]triazolo[4,3-a]azocine], the remaining activity at 10 µM under setting [1] was -2.3%.
`O=C(c1ccnc(C(F)(F)F)c1Cl)N1[C@H]2CCC[C@@H]1c1nnc(-c3cccs3)n1C2` (stereo in doubt) [Example 35, (6S*,10R*)-11-{[3-Chloro-2-(trifluoromethyl)pyridin-4-yl]carbonyl}-3-thiophen-2-yl-5,6,7,8,9,10-hexahydro-6,10-epimino[1,2,4]triazolo[4,3-a]azocine]: the “PBMC 10 μM (% control)” value turned out to be 82.2 % control. Moreover, under setting [1], the remaining activity at 10 µM worked out at 82.2%.
Turning to `O=C(c1cccc(C(F)(F)F)c1Cl)N1[C@H]2CCC[C@@H]1c1nnc(-c3cscn3)n1C2` (stereo in doubt) [Example 8, (6S*,10R*)-11-{[2-Chloro-3-(trifluoromethyl)phenyl]carbonyl}-3-(1,3-thiazol-4-yl)-5,6,7,8,9,10-hexahydro-6,10-epimino[1,2,4]triazolo[4,3-a]azocine], the remaining activity at 10 µM was 7.3% (P2X7, Table 1, 10 μM compound) and 7.3% under setting [1].
As to `COc1ccnc(-c2nnc3n2C[C@@H]2CCC[C@H]3N2C(=O)c2cccc(C(F)(F)F)c2Cl)c1` (stereo in doubt) [Example 26, (6S*,10R*)-11-{[2-Chloro-3-(trifluoromethyl)phenyl]carbonyl}-3-(4-methoxypyridin-2-yl)-5,6,7,8,9,10-hexahydro-6,10-epimino[1,2,4]triazolo[4,3-a]azocine], the remaining activity at 10 µM runs as follows: (P2X7, Table 1, 10 μM compound) 9.2%; under setting [1], 9.2%.
With `O=C(c1cccc(C(F)(F)F)c1Cl)N1[C@@H]2CCC[C@H]1c1nnc(-c3cccnn3)n1C2` (stereo in doubt) [Example 195, (6R,10S)-11-{[2-Chloro-3-(trifluoromethyl)phenyl]carbonyl}-3-pyridazin-3-yl-5,6,7,8,9,10-hexahydro-6,10-epimino[1,2,4]triazolo[4,3-a]azocine], the remaining activity at 10 µM under setting [1] came out at 11.2%.
In the case of `O=C(c1cccc(C(F)(F)F)c1Cl)N1[C@@H]2CCC[C@H]1c1nnc(-c3ccncn3)n1C2` (stereo in doubt) [Example 197, (6R,10S)-11-{[2-Chloro-3-(trifluoromethyl)phenyl]carbonyl}-3-pyrimidin-4-yl-5,6,7,8,9,10-hexahydro-6,10-epimino[1,2,4]triazolo[4,3-a]azocine], the remaining activity at 10 µM under setting [1] turned out to be 1.8%.
